Key:
[1] = in vivo; cited from earlier work
[2] = mouse, in vivo, po, 10 mg/kg
[3] = inhalation; cited from earlier work

CCC(=O)C(CC(C)N(C)C)(c1ccccc1)c1ccccc1 (stereo not drawn) [methadone]
minimally effective plasma analgesic concentration (MEAC) [1]: 60 ng/mL

Cc1nccn1CC1CCc2c(c3ccccc3n2C)C1=O (stereo not drawn) [ondansetron]
slope of trend line, plasma (y) versus whole blood (x) ondansetron concentration [2]: 0.973

CC#N [acetonitrile]
acetonitrile in inhaled air that can induce toxic effects [3]: 100 ppm

Reference: US20210086176A1, “Analyte Detection method” (The Board of Trustees of the Leland Stanford Junior …, priority 2017, published 2021)
